melting point: 175 °C
Structure (SMILES): CN1C(=O)C(Cc2ccccc2)N(C)C(=O)C1=Cc1c(C#N)ccc(F)c1F (stereo not shown) [Example 15, 2-[5-Benzyl-1,4-dimethyl-3,6-dioxopiperazin-2-ylidenemethyl]-3,4-difluoro-benzonitrile]
